Data from ChEMBL document CHEMBL1201862, “PubChem BioAssay data set” (2004).
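Method: 48-hour compound exposure of cells in 96-well plates, five concentrations, linear interpolation of endpoints. GI50 is the concentration that inhibits growth by half.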 Active and inactive are the calls of the source. Rule as the data show it: active = GI50 up to about 1.1 µM and inactive = higher. Where a SMILES comes first, the peptide text is derived from it. The star is where a group is joined. Boc = CC(C)(C)OC(=O)*

Tests used:
Experiment in all cases: NCI-60 cell line screen, 48 h
OVCAR-4 = system: OVCAR-4
RPMI-8226 = system: RPMI-8226
LOX IMVI = system: LOX IMVI
HT-29 = system: HT-29
MDA-N = system: MDA-N
OVCAR-3 = system: OVCAR-3
TK-10 = system: TK-10
MOLT-4 = system: MOLT-4
NCI-H226 = system: NCI-H226
UACC-257 = system: UACC-257
HOP-62 = system: HOP-62
MDA-MB-435 = system: MDA-MB-435
UACC-62 = system: UACC-62
EKVX = system: EKVX
HCT-15 = system: HCT-15
ACHN = system: ACHN
UO-31 = system: UO-31
786-0 = system: 786-0
SW-620 = system: SW-620
HCC 2998 = system: HCC 2998

Compound	GI50 (OVCAR-4)	GI50 (RPMI-8226)	GI50 (LOX IMVI)	GI50 (HT-29)	GI50 (MDA-N)	GI50 (OVCAR-3)	GI50 (TK-10)	GI50 (MOLT-4)	GI50 (NCI-H226)	GI50 (UACC-257)	GI50 (HOP-62)	GI50 (MDA-MB-435)	GI50 (UACC-62)	GI50 (EKVX)	GI50 (HCT-15) [µM]	GI50 (ACHN)	GI50 (UO-31)	GI50 (786-0)	GI50 (SW-620)	GI50 (HCC 2998)
Cn1/c(=N\S(=O)(=O)c2ccccc2)n(S(=O)(=O)c2ccccc2)c2ccccc21	> 100 µM (inactive)	48.1 µM (inactive)	> 100 µM (inactive)	35.6 µM (inactive)	61.5 µM (inactive)	36.2 µM (inactive)	> 100 µM (inactive)	42.9 µM (inactive)	50.2 µM (inactive)	> 100 µM (inactive)	38.8 µM (inactive)	58.9 µM (inactive)	> 100 µM (inactive)	63.5 µM (inactive)	> 100	34.5 µM (inactive)	34.7 µM (inactive)	88.5 µM (inactive)	93.1 µM (inactive)	
O=C(C[C@@H]1CCCN2CCCC[C@H]12)N1c2ccccc2Sc2ccc(Cl)cc21		20.2 µM (inactive)	13.7 µM (inactive)	10.6 µM (inactive)	16 µM (inactive)	16.2 µM (inactive)	20 µM (inactive)	11.8 µM (inactive)	27.6 µM (inactive)	11.6 µM (inactive)	13 µM (inactive)	14.5 µM (inactive)		19.1 µM (inactive)	15.7	14.2 µM (inactive)	12.9 µM (inactive)	11.1 µM (inactive)	13.9 µM (inactive)	
NC(CCc1nc(-c2ccc(Cl)cc2)cs1)C(=O)O (centres undefined)	> 100 µM (inactive)	> 100 µM (inactive)	> 100 µM (inactive)	> 100 µM (inactive)		> 100 µM (inactive)	> 100 µM (inactive)	> 100 µM (inactive)	> 100 µM (inactive)	> 100 µM (inactive)	> 100 µM (inactive)		> 100 µM (inactive)	> 100 µM (inactive)	74	> 100 µM (inactive)	> 100 µM (inactive)	> 100 µM (inactive)	> 100 µM (inactive)	> 100 µM (inactive)
CCOc1ccc(/N=N/c2ccc(-c3ccc(/N=N/c4c(O)ccc5cc(S(=O)(=O)O)cc(S(=O)(=O)O)c45)cc3)cc2)cc1	> 100 µM (inactive)	> 100 µM (inactive)		> 100 µM (inactive)		> 100 µM (inactive)	> 100 µM (inactive)	> 100 µM (inactive)	> 100 µM (inactive)	> 100 µM (inactive)	> 100 µM (inactive)	> 100 µM (inactive)	> 100 µM (inactive)	> 100 µM (inactive)	86.5	> 100 µM (inactive)	> 100 µM (inactive)	> 100 µM (inactive)	> 100 µM (inactive)	> 100 µM (inactive)
O=C(Nc1nc2ccc([N+](=O)[O-])cc2s1)c1cc([N+](=O)[O-])ccc1Cl	5.27 µM (inactive)	0.989 µM (active)	2.05 µM (inactive)	2.48 µM (inactive)	1.48 µM (inactive)	1.59 µM (inactive)	3.8 µM (inactive)	3.21 µM (inactive)	1.31 µM (inactive)	3.23 µM (inactive)	3 µM (inactive)	4.04 µM (inactive)		2.81 µM (inactive)	1.93	3.2 µM (inactive)		2.75 µM (inactive)	2.29 µM (inactive)	
Clc1ccccc1NN(Cc1ccncc1)c1ccccc1Cl	11.1 µM (inactive)	10.8 µM (inactive)	16.7 µM (inactive)	12.6 µM (inactive)	13.5 µM (inactive)	13.5 µM (inactive)		15.5 µM (inactive)	21 µM (inactive)		15.8 µM (inactive)	15.2 µM (inactive)	13.2 µM (inactive)	14 µM (inactive)	16.3	16.6 µM (inactive)	24.5 µM (inactive)	13.7 µM (inactive)	16.9 µM (inactive)	
Cc1cc(N(CCC#N)CCC#N)ccc1/N=N/c1ccc([N+](=O)[O-])cc1	19.7 µM (inactive)	44.9 µM (inactive)	25.1 µM (inactive)	> 100 µM (inactive)		47.2 µM (inactive)	39.8 µM (inactive)	> 100 µM (inactive)	> 100 µM (inactive)	> 100 µM (inactive)	> 100 µM (inactive)		> 10 µM (inactive)	> 100 µM (inactive)	39.4	95.9 µM (inactive)	> 100 µM (inactive)	43 µM (inactive)	> 10 µM (inactive)	> 100 µM (inactive)
CC(C)(SCc1ccccc1)C(N)C(=O)O (centres undefined)	> 100 µM (inactive)	> 100 µM (inactive)	> 100 µM (inactive)	> 100 µM (inactive)	> 100 µM (inactive)	> 100 µM (inactive)	> 100 µM (inactive)	> 100 µM (inactive)	> 100 µM (inactive)	> 100 µM (inactive)	> 100 µM (inactive)	> 100 µM (inactive)	> 100 µM (inactive)	> 100 µM (inactive)	> 100	> 100 µM (inactive)	> 100 µM (inactive)	> 100 µM (inactive)	> 100 µM (inactive)	
CC(=O)CCn1[nH]c(=O)c(Cl)c(Cl)c1=O	> 100 µM (inactive)	> 100 µM (inactive)	> 100 µM (inactive)	> 100 µM (inactive)		> 100 µM (inactive)	> 100 µM (inactive)	> 100 µM (inactive)	> 100 µM (inactive)	> 100 µM (inactive)	> 100 µM (inactive)		> 100 µM (inactive)	> 100 µM (inactive)	> 100	> 100 µM (inactive)	> 100 µM (inactive)	> 100 µM (inactive)	15 µM (inactive)	> 100 µM (inactive)
O=C(Cn1cc(-c2ccccc2)nn1)NC1CCCC1	> 100 µM (inactive)	> 100 µM (inactive)	> 100 µM (inactive)	> 100 µM (inactive)			> 100 µM (inactive)	> 100 µM (inactive)	> 100 µM (inactive)	> 100 µM (inactive)	> 100 µM (inactive)	> 100 µM (inactive)		> 100 µM (inactive)	> 100	> 100 µM (inactive)		> 100 µM (inactive)	> 100 µM (inactive)	> 100 µM (inactive)
N#C[BH2-][n+]1ccc(C(=O)NNC(c2ccccc2)C(F)(F)F)cc1 (centres undefined)	> 100 µM (inactive)	> 100 µM (inactive)	> 100 µM (inactive)	> 100 µM (inactive)			> 100 µM (inactive)	> 100 µM (inactive)	> 100 µM (inactive)	> 100 µM (inactive)	97.7 µM (inactive)	> 100 µM (inactive)		> 100 µM (inactive)	> 100	> 100 µM (inactive)		> 100 µM (inactive)	> 100 µM (inactive)	> 100 µM (inactive)
COC(=O)C(Cc1c[nH]c2ccccc12)NC(=O)C(Cc1c[nH]c2ccccc12)NC(=O)C(Cc1c[nH]c2ccccc12)NC(=O)OC(C)(C)C (stereo not drawn) (Boc-Trp-Trp-Trp-OMe; configuration not given here)		27.2 µM (inactive)		19.2 µM (inactive)	20 µM (inactive)		25.5 µM (inactive)	17.3 µM (inactive)	16.5 µM (inactive)	32.7 µM (inactive)	17.9 µM (inactive)		18.8 µM (inactive)	57 µM (inactive)	19.5	18.1 µM (inactive)	24.3 µM (inactive)	17.8 µM (inactive)	21.5 µM (inactive)	18.6 µM (inactive)
C[C@]12c3c4cc(NC(=O)C(=O)NCc5ccc(-c6ccccn6)nc5)cc3Oc3cc(NC(=O)C(=O)NCc5ccc(-c6ccccn6)nc5)cc(c31)OC1C=C(NC(=O)C(=O)NCc3ccc(-c5ccccn5)nc3)C=C(O4)C12 (some centres undefined)	3.47 µM (inactive)	42.1 µM (inactive)	17.6 µM (inactive)	12.1 µM (inactive)	34 µM (inactive)	35.6 µM (inactive)	> 100 µM (inactive)	12.6 µM (inactive)	29.6 µM (inactive)	52.2 µM (inactive)	> 100 µM (inactive)	97.9 µM (inactive)	24.5 µM (inactive)	11.5 µM (inactive)	27.8	14.3 µM (inactive)	22.3 µM (inactive)	18.1 µM (inactive)	> 100 µM (inactive)	
CC(=O)NC(CCCN(Cc1ccccc1)C(=O)N(CCCl)N=O)C(=O)NCc1ccccc1 (centres undefined)	> 95.3 µM (inactive)	> 70 µM (inactive)	2.92 µM (inactive)	> 57.5 µM (inactive)		98.6 µM (inactive)	> 85.5 µM (inactive)	9.4 µM (inactive)	44.9 µM (inactive)	50 µM (inactive)	7.24 µM (inactive)		2.24 µM (inactive)	> 72.9 µM (inactive)	> 81.8	10.8 µM (inactive)	43.4 µM (inactive)	2.24 µM (inactive)	16.2 µM (inactive)	64.6 µM (inactive)
O=[N+]([O-])c1ccc2nc3ccscc-3c2c1	15.5 µM (inactive)	7.08 µM (inactive)	18.7 µM (inactive)	22.6 µM (inactive)		7.94 µM (inactive)	20.9 µM (inactive)	5.87 µM (inactive)	20.9 µM (inactive)	14.3 µM (inactive)	17.9 µM (inactive)		21.4 µM (inactive)	9.93 µM (inactive)	15.2	13.6 µM (inactive)	8.13 µM (inactive)	19.5 µM (inactive)	7.08 µM (inactive)	15.2 µM (inactive)
